Bounds are passed on as bounds.

In this test the target is T1, ER protein (Homo sapiens, UniProt P03372).
T1 sequence (P03372 1-595): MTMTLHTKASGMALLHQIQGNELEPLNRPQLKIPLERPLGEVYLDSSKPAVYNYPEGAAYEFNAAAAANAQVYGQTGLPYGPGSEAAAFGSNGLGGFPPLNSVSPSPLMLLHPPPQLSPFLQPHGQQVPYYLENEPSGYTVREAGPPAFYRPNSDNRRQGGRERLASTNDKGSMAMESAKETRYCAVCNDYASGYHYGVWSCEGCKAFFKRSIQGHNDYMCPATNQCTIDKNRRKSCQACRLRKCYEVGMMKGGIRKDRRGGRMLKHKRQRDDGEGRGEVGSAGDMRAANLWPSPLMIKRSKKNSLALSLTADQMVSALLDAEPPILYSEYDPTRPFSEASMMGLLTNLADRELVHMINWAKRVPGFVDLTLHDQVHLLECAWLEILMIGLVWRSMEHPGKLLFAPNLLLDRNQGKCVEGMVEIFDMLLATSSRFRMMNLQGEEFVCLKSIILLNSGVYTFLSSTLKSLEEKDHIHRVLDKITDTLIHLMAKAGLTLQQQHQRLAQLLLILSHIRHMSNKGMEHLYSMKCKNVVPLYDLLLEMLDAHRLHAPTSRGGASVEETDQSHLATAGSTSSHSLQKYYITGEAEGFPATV
The test is described as follows: Western blotting analysis of ER protein degradation in T47D cell line. Type of test: cell-based. Also on record: western blotting detection of the level of intracellular ER protein; endogenous in cells; host or cells: T47D. Conditions: T47D cells; for DC50: degradation of ER protein, drug treatment for 16 hours, Western blot gray values vs DMSO control, read-out: DC50 (nM)/T47Dcell line. The method, then:
T47D cells were cultured in an incubator with 5% CO2 at 37° C. Complete medium was RPMI1640 supplemented with 10% Foetal bovine serum (FBS), 100 U/ml Penicillin and Streptomycin, and 0.77 μg/mL recombinant human insulin. Western blotting analysis of T47D cell line: • Cells were plated in a 24-well plate at a cell seeding […] of 1.5×10^5 cells/mL, with 1 ml cell suspensions per well. • After 24 h the cells were adherent, and the cells in each well were treated with 1 μL a certain concentration of ER protein regulators of the present disclosure. […] Afterwards, the membranes were block by using the Blocking Buffer, and the antibody incubation and development were performed. (The above procedures were all based on the antibody product manual of the manufacturer) DC50 value (the drug concentration required for degrading proteins by 50%, abbreviated as DC50) reads method: comparing the gray values of the Western blotting bands for the drug treatment with the gray values of the Western blotting band for the DMSO control, and reading the drug concentration range corresponding to the gray value of the Western blotting bands for the drug treatment which is equal to half of the gray value of the Western blotting band for the DMSO control. DC50 value could also be calculated as follows: using software ImageJ to quantify the gray values of the Western blotting bands for the drug treatment, fitting the relationship curve between drug concentrations and gray values, and from the fitted curve, calculating the drug concentration corresponding to half of the gray value of the Western blotting band for the DMSO control.

As to `CCC(=C(c1ccc(O)cc1)c1ccc(OCCNC(=O)CCOCCOCCOCCC(=O)N[C@H](C(=O)N2C[C@H](O)C[C@H]2C(=O)NCc2ccc(-c3scnc3C)cc2)C(C)(C)C)cc1)c1ccc(O)cc1` [SIAIS208174, (2S,4R)-1-((S)-19-(4-(1,2-bis(4-hydroxyphenyl)but-1-en-1-yl)phenoxy)-2-(tert-butyl)-4,16-dioxo-7,10,13-trioxa-3,17-diazanonadecanoyl)-4-hydroxy-N-(4-(4-methylthiazol-5-yl)benzyl)pyrrolidine-2-carboxamide], the DC50 is less than 50 nM.
Same read-out and setting: the value for `O=C(CCCCNc1cccc2c1C(=O)N(C1CCC(=O)NC1=O)C2=O)NCCOc1ccc(C(=C(CCCl)c2ccccc2)c2ccc(O)cc2)cc1` (centres unmarked) [SIAIS208144, N-(2-(4-(4-chloro-1-(4-hydroxyphenyl)-2-phenylbut-1-en-1-yl)phenoxy)ethyl)-5-((2-(2,6-dioxopiperidin-3-yl)-1,3-dioxoisoindolin-4-yl)amino)pentanamide] was less than 100 nM.
Consider `CCC(=C(c1ccc(O)cc1)c1ccc(OCCNC(=O)CCCCCCCC(=O)N[C@H](C(=O)N2C[C@H](O)C[C@H]2C(=O)NCc2ccc(-c3scnc3C)cc2)C(C)(C)C)cc1)c1ccc(O)cc1` [SIAIS208167, N1-(2-(4-(1,2-bis(4-hydroxyphenyl)but-1-en-1-yl)phenoxy)ethyl)-N9-((S)-1-((2S,4R)-4-hydroxy-2-((4-(4-methylthiazol-5-yl)benzyl)carbamoyl)pyrrolidin-1-yl)-3,3-dimethyl-1-oxobutan-2-yl)nonanediamide], for which the DC50 is less than 50 nM.
Same read-out and setting: the value for `Cc1ncsc1-c1ccc(CNC(=O)[C@@H]2C[C@@H](O)CN2C(=O)[C@@H](NC(=O)CCCCCCCC(=O)N(C)CCOc2ccc(/C(=C(/CCCl)c3ccccc3)c3ccccc3)cc2)C(C)(C)C)cc1` [SIAIS180035, N1-(2-(4-((Z)-4-chloro-1,2-diphenylbut-1-en-1-yl)phenoxy)ethyl)-N9-((S)-1-((2S,4R)-4-hydroxy-2-((4-(4-methylthiazol-5-yl)benzyl)carbamoyl)pyrrolidin-1-yl)-3,3-dimethyl-1-oxobutan-2-yl)-N1-methylnonanediamide] was less than 200 nM; that for `Cc1ncsc1-c1ccc(CNC(=O)[C@@H]2C[C@@H](O)CN2C(=O)[C@@H](NC(=O)CCCCCCCCC(=O)N2CCN(CCOc3ccc(C(=C(CCCl)c4ccccc4)c4ccc(O)cc4)cc3)CC2)C(C)(C)C)cc1` [SIAIS251047, (2S,4R)-1-((S)-2-(10-(4-(2-(4-(4-chloro-1-(4-hydroxyphenyl)-2-phenylbut-1-en-1-yl)phenoxy)ethyl)piperazin-1-yl)-10-oxodecanamido)-3,3-dimethylbutanoyl)-4-hydroxy-N-(4-(4-methylthiazol-5-yl)benzyl)pyrrolidine-2-carboxamide] was less than 50 nM.
Same read-out and setting: the value for `CN(CCOc1ccc(/C(=C(/CCCl)c2ccccc2)c2ccccc2)cc1)C(=O)CCN1CCN(CCNc2cccc3c2C(=O)N(C2CCC(=O)NC2=O)C3=O)CC1` (centres unmarked) [SIAIS208135, (Z)-N-(2-(4-(4-chloro-1,2-diphenylbut-1-en-1-yl)phenoxy)ethyl)-3-(4-(2-((2-(2,6-dioxopiperidin-3-yl)-1,3-dioxoisoindolin-4-yl)amino)ethyl)piperazin-1-yl)-N-methylpropanamide] was less than 200 nM; that for `O=C(CCCCCCNc1cccc2c1CN(C1CCC(=O)NC1=O)C2=O)NCCOc1ccc(C(=C(CCCl)c2ccccc2)c2ccc(O)cc2)cc1` (centres unmarked) [SIAIS251033, N-(2-(4-(4-chloro-1-(4-hydroxyphenyl)-2-phenylbut-1-en-1-yl)phenoxy)ethyl)-7-((2-(2,6-dioxopiperidin-3-yl)-1-oxoisoindolin-4-yl)amino)heptanamide] was 50 nM.
Same read-out and setting: the value for `Cc1ncsc1-c1ccc(CNC(=O)[C@@H]2C[C@@H](O)CN2C(=O)[C@@H](NC(=O)CCc2ccc(CCC(=O)NCCOc3ccc(C(=C(CCCl)c4ccccc4)c4ccc(O)cc4)cc3)cc2)C(C)(C)C)cc1` [SIAIS208127, (2S,4R)-1-((S)-2-(3-(4-(3-((2-(4-(4-chloro-1-(4-hydroxyphenyl)-2-phenylbut-1-en-1-yl)phenoxy)ethyl)amino)-3-oxopropyl)phenyl)propanamido)-3,3-dimethylbutanoyl)-4-hydroxy-N-(4-(4-methylthiazol-5-yl)benzyl)pyrrolidine-2-carboxamide] was less than 100 nM; that for `Cc1ncsc1-c1ccc(CNC(=O)[C@@H]2C[C@@H](O)CN2C(=O)[C@@H](NC(=O)CCOCCOCCC(=O)N(C)CCOc2ccc(/C(=C(/CCCl)c3ccccc3)c3ccccc3)cc2)C(C)(C)C)cc1` [SIAIS180023, (2S,4R)-1-((S)-2-(tert-butyl)-16-(4-((Z)-4-chloro-1,2-diphenylbut-1-en-1-yl)phenoxy)-14-methyl-4,13-dioxo-7,10-dioxa-3,14-diazahexadecanoyl)-4-hydroxy-N-(4-(4-methylthiazol-5-yl)benzyl)pyrrolidine-2-carboxamide] was less than 50 nM; that for `O=C(CCCCCCNc1cccc2c1C(=O)N(C1CCC(=O)NC1=O)C2=O)NCCOc1ccc(C(=C(CCCl)c2ccccc2)c2ccc(O)cc2)cc1` (centres unmarked) [SIAIS208145, N-(2-(4-(4-chloro-1-(4-hydroxyphenyl)-2-phenylbut-1-en-1-yl)phenoxy)ethyl)-7-((2-(2,6-dioxopiperidin-3-yl)-1,3-dioxoisoindolin-4-yl)amino)heptanamide] was less than 100 nM.
For the compound `NCCOc1ccc(C(=C(CCCl)c2ccccc2)c2ccc(O)cc2)cc1` [Toremifene derivative B, 4-(1-(4-(2-aminoethoxy)phenyl)-4-chloro-2-phenylbut-1-en-1-yl)phenol, reference compound], the “Degradation of the ER protein in the T47D cell line (Western blotting)” value (FIGS. 1(A)-(O)) is recorded as “did not degrade the ER protein”.
Consider `Cc1ncsc1-c1ccc(CNC(=O)[C@@H]2C[C@@H](O)CN2C(=O)[C@@H](NC(=O)CCCCCC(=O)N(C)CCOc2ccc(/C(=C(/CCCl)c3ccccc3)c3ccccc3)cc2)C(C)(C)C)cc1` [SIAIS180029, N1-(2-(4-((Z)-4-chloro-1,2-diphenylbut-1-en-1-yl)phenoxy)ethyl)-N7-((S)-1-((2S,4R)-4-hydroxy-2-((4-(4-methylthiazol-5-yl)benzyl)carbamoyl)pyrrolidin-1-yl)-3,3-dimethyl-1-oxobutan-2-yl)-N1-methylheptanediamide], for which the DC50 amounted to 100 nM.
Regarding `Cc1ncsc1-c1ccc(CNC(=O)[C@@H]2C[C@@H](O)CN2C(=O)[C@@H](NC(=O)CCCCCCCC(=O)N2CCN(CCOc3ccc(C(=C(CCCl)c4ccccc4)c4ccc(O)cc4)cc3)CC2)C(C)(C)C)cc1` [SIAIS251046, (2S,4R)-1-((S)-2-(9-(4-(2-(4-(4-chloro-1-(4-hydroxyphenyl)-2-phenylbut-1-en-1-yl)phenoxy)ethyl)piperazin-1-yl)-9-oxononanamido)-3,3-dimethylbutanoyl)-4-hydroxy-N-(4-(4-methylthiazol-5-yl)benzyl)pyrrolidine-2-carboxamide], the DC50 is less than 50 nM.
Consider `Cc1ncsc1-c1ccc(CNC(=O)[C@@H]2C[C@@H](O)CN2C(=O)[C@@H](NC(=O)CCCCC(=O)N2CCN(CCOc3ccc(C(=C(CCCl)c4ccccc4)c4ccc(O)cc4)cc3)CC2)C(C)(C)C)cc1` [SIAIS251043, (2S,4R)-1-((S)-2-(6-(4-(2-(4-(4-chloro-1-(4-hydroxyphenyl)-2-phenylbut-1-en-1-yl)phenoxy)ethyl)piperazin-1-yl)-6-oxohexanamido)-3,3-dimethylbutanoyl)-4-hydroxy-N-(4-(4-methylthiazol-5-yl)benzyl)pyrrolidine-2-carboxamide], for which the DC50 is less than 50 nM.
